Laboratory results published in publication PMC8950868, “Identifying Human PTP1B Enzyme Inhibitors from Marine Natural Products: Perspectives for Developing of Novel Insulin-Mimetic Drugs” (Pharmaceuticals, 2022).

System: C2C12 cells
Experiment: Glucose uptake assay (2-NBDG, flow cytometry)
Assay type: cell-based, murine
Details: 20 µM compound alone, 30 min, then 2-NBDG 3 h
Description: To evaluate glucose uptake, C2C12 cells were grown until 80% confluence and then incubated in starvation medium for 24 h. After this time, cells were stimulated with 10 nM insulin (Humalog Lispro, Eli Lilly), 20 µM compound 3 or 3-insulin combination for 30 min and then incubated in the presence of 40 µM of 2-NBDG (Invitrogen) for 3 h. Then, cells were washed with PBS, tripsinized, pelleted by centrifugation (1000× g for 5 min), then suspended in 500 µL of PBS. The amount of 2-NBDG uploaded by cells was determined analysing cells by using a flow cytometer apparatus (FACSCanto II, BD Biosciences, San Jose, CA, USA). For each sample 1 × 10^4 events were acquired. Data obtained were then analysed with FlowJo software. Cells autofluorescence values were determined before sample analysis and subtracted to each sample.
Figure 13 Glucose uptake assay. C2C12 cells were treated with 10 nM insulin, 20 µM compound 3 or 3-insulin combination and then incubated in the presence of 2-NBDG for 3 h. After that, the glucose uptake was analysed by flow cytometry analysis. Each test was carried out in quadruplicate. For each test, 10,000 events at least were analysed. (A), quantification of the mean fluorescence values of C2C12 cells. Data represents the mean value ± SD (n = 4). […] (B), representative cell fluorescence distribution obtained by analysing data with the FlowJo software. […]

Q: How did the “Glucose uptake (2-NBDG)” value turn out when `CCCCCCCCCCCCCCC(OP(=O)(O)O)C(O)CCCO` (stereo not shown) [Compound 3] was run?
A: The value was “incorporated more glucose than insulin-stimulated C2C12 cells”.
